From patent publication US20240199647A1, “ANTI-VIRAL COMPOUNDS” (Aligos Therapeutics, Inc., priority 2022, published 2024)
Read-outs that look alike come from different tables or passages of the source.

Tests used:
[1] = system: SARS-CoV-2 B.1.1.7 lineage; test: microbe, parasite or virus in culture; type: cell-based; settings: Severe acute respiratory syndrome coronavirus 2, Table C, SARS-CoV-2 B.1.1.7 in A549-dual_ACE2_TMPRSS2 cells, read-out: A549-dual_ACE2_TMPRSS2 (EC50)
[2] = Cytotoxicity in HeLa cells without addition of OC43 virus (in parallel); settings: human, HeLa cells, without OC43 virus
in vitro = settings: human
[3] = system: human beta-coronavirus OC43; test: OC43 Coronavirus Assay in HeLa cells (antiviral, cytopathic effect, cell-titer-glo); type: cell-based; settings: Betacoronavirus 1, OC43, HeLa, Table B, OC43 coronavirus in HeLa cells, read-out: EC50
SARS-Cov-2 3CLpro = SARS-Cov-2 3CLpro (Severe acute respiratory syndrome coronavirus 2, UniProt P0DTD1); test: biochemical; settings: Table A, class symbols, read-out: SARS-Cov-2 (IC50)

| SMILES | EC50 ([1]; class symbols) | CC50 at 6 days [2] | CC50 (in vitro) | EC50 ([3]; class symbols) | IC50 (SARS-Cov-2 3CLpro) | EC50 ([3]; cells given as a bound) | EC50 ([1]; cells given as a bound) |
| --- | --- | --- | --- | --- | --- | --- | --- |
| CN(C(=O)[C@@H](NC(=O)C(F)(F)F)C(C)(C)C)[C@@H](CC1CC1)C(=O)N1C[C@@]2(C[C@H]1C#N)Oc1cc(F)cc(F)c1NC2=O [Compound 53] | 100 to 1000 nM | > 10000 nM | > 1000 nM | 100 to 1000 nM | < 20 nM |  |  |
| CN(C(=O)c1cc2c(F)cc(F)c(F)c2[nH]1)[C@@H](CC1CC1)C(=O)N1C[C@@]2(C[C@H]1C#N)Oc1ccccc1CNC2=O [Compound 140] | < 100 nM | > 10000 nM | > 1000 nM | < 100 nM | < 20 nM |  |  |
| CN(C(=O)[C@H](CC1CC1)NC(=O)C(F)(F)F)[C@@H](CC1CC1)C(=O)N1C[C@]2(C[C@H]1C#N)C(=O)NCc1ccccc12 (single isomer, unassigned) [Compound 122] | < 100 nM | > 10000 nM | > 1000 nM | < 100 nM | < 20 nM |  |  |
| CC[C@H](NC(=O)C(F)(F)F)C(=O)N(C)[C@@H](CC1CC1)C(=O)N1C[C@@]2(C[C@H]1C#N)Oc1cc(F)cc(F)c1NC2=O [Compound 88] | < 100 nM | > 10000 nM | > 1000 nM | 100 to 1000 nM | < 20 nM |  |  |
| CC(C)C[C@@H](C(=O)N1C[C@@]2(C[C@H]1C#N)Oc1ccncc1NC2=O)N(C)C(=O)c1cc2c(F)cc(F)cc2[nH]1 [Example 3, N—((S)-1-((2R,5'S)-5′-cyano-3-oxo-3,4-dihydrospiro[pyrido[4,3-b][1,4]oxazine-2,3′-pyrrolidin]-1′-yl)-4-methyl-1-oxopentan-2-yl)-4,6-difluoro-N-methyl-1H-indole-2-carboxamide] | 1000 to 10000 nM | > 10000 nM | > 1000 nM |  | 20 to 200 nM | > 1000 nM |  |
| CN(C(=O)[C@H](CC1CC1)NC(=O)C(F)(F)F)[C@@H](CC1CC1)C(=O)N1C[C@@]2(C[C@H]1C#N)Oc1cc(F)cnc1NC2=O [Compound 67] | 100 to 1000 nM | > 10000 nM | > 1000 nM | < 100 nM | < 20 nM |  |  |
| CN(C(=O)[C@H](CC1CC(F)(F)C1)NC(=O)C(F)(F)F)[C@@H](CC1CC1)C(=O)N1C[C@@]2(C[C@H]1C#N)Oc1cccnc1NC2=O [Compound 187] | 100 to 1000 nM | > 10000 nM | > 1000 nM | < 100 nM | < 20 nM |  |  |
| CC(C)C[C@@H](C(=O)N1C[C@]2(CCCNC2=O)C[C@H]1C#N)N(C)C(=O)[C@H](C)NC(=O)C(F)(F)F [Compound 11] | 100 to 1000 nM | > 10000 nM | > 1000 nM | 1000 to 10000 nM | 20 to 200 nM |  |  |
| CN1CCC[C@H]1C(=O)N(C)[C@@H](CC1CC1)C(=O)N1C[C@@]2(C[C@H]1C#N)Oc1cc(F)cc(F)c1NC2=O [Compound 131] |  | > 10000 nM | > 1000 nM | 1000 to 10000 nM | 20 to 200 nM |  | > 1000 nM |
| C[C@@H](OC(C)(C)C)[C@H](NC(=O)C(F)(F)F)C(=O)N(C)[C@@H](CC1CC1)C(=O)N1C[C@@]2(C[C@H]1C#N)Oc1cc(F)cc(F)c1NC2=O [Compound 159] | < 100 nM | > 10000 nM | > 1000 nM | 100 to 1000 nM | < 20 nM |  |  |
| CN(C(=O)[C@H](CC1CC1)n1cc(-c2ccccc2)nn1)[C@@H](CC1CC1)C(=O)N1C[C@@]2(C[C@H]1C#N)Oc1cc(F)cc(F)c1NC2=O [Compound 114, (S)—N—((S)-1-((2R,5'S)-5′-cyano-5,7-difluoro-3-oxo-3,4-dihydrospiro[benzo[b][1,4]oxazine-2,3′-pyrrolidin]-1′-yl)-3-cyclopropyl-1-oxopropan-2-yl)-3-cyclopropyl-N-methyl-2-(4-phenyl-1H-1,2,3-triazol-1-yl)propenamide] | 100 to 1000 nM | > 10000 nM | > 1000 nM | 100 to 1000 nM | < 20 nM |  |  |
| CC(C)C[C@@H](C(=O)N1C[C@]2(CC(c3ccccc3)NC2=O)C[C@H]1C#N)N(C)C(=O)[C@H](C)NC(=O)C(F)(F)F (some centres unmarked) [Compound 24] | 100 to 1000 nM | > 10000 nM | > 1000 nM | 1000 to 10000 nM | < 20 nM |  |  |
| CN(C(=O)[C@H](CC(C)(C)C)NC(=O)C(F)(F)F)[C@@H](CC1CC1)C(=O)N1C[C@@]2(C[C@H]1C#N)Oc1ncccc1NC2=O [Compound 204] | < 100 nM | > 10000 nM | > 1000 nM | < 100 nM | < 20 nM |  |  |
| C[C@H](NC(=O)C(F)(F)C(F)(F)F)C(=O)N(C)[C@@H](CC1CC1)C(=O)N1C[C@@]2(C[C@H]1C#N)Oc1cccnc1NC2=O [Compound 170] | < 100 nM | > 10000 nM | > 1000 nM | < 100 nM | < 20 nM |  |  |
| Cc1ccc2c(n1)NC(=O)[C@]1(C[C@@H](C#N)N(C(=O)[C@H](CC3CC3)N(C)C(=O)[C@H](C)NC(=O)C(F)(F)F)C1)O2 [Compound 229, (S)—N—((S)-1-((2R,5'S)-5′-cyano-6-methyl-3-oxo-3,4-dihydrospiro[pyrido[3,2-b][1,4]oxazine-2,3′-pyrrolidin]-1′-yl)-3-cyclopropyl-1-oxopropan-2-yl)-N-methyl-2-(2,2,2-trifluoroacetamido)propanamide] | 100 to 1000 nM | > 10000 nM | > 1000 nM | < 100 nM | < 20 nM |  |  |
| CC(C)C[C@@H](C(=O)N1C[C@]2(C[C@H]1C#N)C(=O)Nc1cc(-c3ccccc3)nn12)N(C)C(=O)[C@H](C)NC(=O)C(F)(F)F [Compound 25, (S)—N—((S)-1-((3R,5'S)-5′-cyano-2-oxo-6-phenyl-1,2-dihydrospiro[imidazo[1,2-b]pyrazole-3,3′-pyrrolidin]-1′-yl)-4-methyl-1-oxopentan-2-yl)-N-methyl-2-(2,2,2-trifluoroacetamido)propanamide] | 100 to 1000 nM | > 10000 nM | > 1000 nM | 100 to 1000 nM | 20 to 200 nM |  |  |
| CN(C(=O)[C@H](CC1CC1)NS(=O)(=O)C1CC1)[C@@H](CC1CC1)C(=O)N1C[C@@]2(C[C@H]1C#N)Oc1cccnc1NC2=O [Compound 178] | 100 to 1000 nM | > 10000 nM | > 1000 nM | < 100 nM | < 20 nM |  |  |
| CC(C)C[C@@H](C(=O)N1C[C@]2(C[C@H]1C#N)C(=O)Nc1ccccc1C2(F)F)N(C)C(=O)[C@H](C)NC(=O)C(F)(F)F [Example 43, (S)—N—((S)-1-((3R,5S)-5-cyano-4′,4′-difluoro-2′-oxo-1′,4′-dihydro-2′H-spiro[pyrrolidine-3,3′-quinolin]-1-yl)-4-methyl-1-oxopentan-2-yl)-N-methyl-2-(2,2,2-trifluoroacetamido)propanamide] | 100 to 1000 nM | > 10000 nM | > 1000 nM | 1000 to 10000 nM | 20 to 200 nM |  |  |
| CC(C)CC(C(=O)N1C[C@]2(C[C@H]1C#N)C(=O)Nc1c3c(nn12)CCCC3)N(C)C(=O)[C@H](C)NC(=O)C(F)(F)F (stereo in doubt) [Example 28, (2S)—N-[(2S)-1-[(3R,5'S)-5′-cyano-2-oxo-6,7,8,9-tetrahydro-1H-spiro[imidazo[1,2-b]indazole-3,3′-pyrrolidin]-1′-yl]-4-methyl-1-oxopentan-2-yl]-N-methyl-2-(2,2,2-trifluoroacetamido)propanamide] |  | > 10000 nM | > 1000 nM | < 100 nM | < 20 nM |  | > 1000 nM |
